Measurements as given in patent US6620593B1, “Method for safety evaluation of chemical compound using recombinant yeast expressing human cytochrome P450” (Sumitomo Chemical Company, Limited, priority 1993, dated 2003).
Read-outs that look alike come from different tables or passages of the source.

What was measured:
human P450 1A2 = target: T1, human P450 1A2 (Homo sapiens, UniProt P05177); assay: Metabolism (hydroxylation) of substrates using transformed yeast cells or their microsomal fractions expressing human P450 1A2 and yeast NADPH-P450 reductase
T1 sequence (P05177 1-516): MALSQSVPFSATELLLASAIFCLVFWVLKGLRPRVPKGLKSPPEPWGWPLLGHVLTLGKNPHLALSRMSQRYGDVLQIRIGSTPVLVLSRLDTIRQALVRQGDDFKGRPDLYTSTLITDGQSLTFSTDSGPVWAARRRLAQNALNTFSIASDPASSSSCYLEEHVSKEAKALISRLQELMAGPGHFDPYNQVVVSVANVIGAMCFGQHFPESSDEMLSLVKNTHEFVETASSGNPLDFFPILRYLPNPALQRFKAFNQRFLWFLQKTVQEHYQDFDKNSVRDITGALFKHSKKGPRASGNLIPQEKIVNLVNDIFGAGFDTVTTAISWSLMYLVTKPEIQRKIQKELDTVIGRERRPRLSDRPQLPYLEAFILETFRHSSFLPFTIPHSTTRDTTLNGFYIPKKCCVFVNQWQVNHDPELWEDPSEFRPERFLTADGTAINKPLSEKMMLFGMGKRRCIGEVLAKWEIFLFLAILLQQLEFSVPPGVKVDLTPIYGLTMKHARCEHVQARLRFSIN
Method: (§1) Then 2 ml of dichloromethane was added.

human P450 2C9 = human P450 2C9 (Homo sapiens, UniProt P11712); assay: Metabolism (hydroxylation) of substrates using transformed yeast cells or microsomal fractions expressing human P450 2C9
Sequence of human P450 2C9 (P11712 whole entry): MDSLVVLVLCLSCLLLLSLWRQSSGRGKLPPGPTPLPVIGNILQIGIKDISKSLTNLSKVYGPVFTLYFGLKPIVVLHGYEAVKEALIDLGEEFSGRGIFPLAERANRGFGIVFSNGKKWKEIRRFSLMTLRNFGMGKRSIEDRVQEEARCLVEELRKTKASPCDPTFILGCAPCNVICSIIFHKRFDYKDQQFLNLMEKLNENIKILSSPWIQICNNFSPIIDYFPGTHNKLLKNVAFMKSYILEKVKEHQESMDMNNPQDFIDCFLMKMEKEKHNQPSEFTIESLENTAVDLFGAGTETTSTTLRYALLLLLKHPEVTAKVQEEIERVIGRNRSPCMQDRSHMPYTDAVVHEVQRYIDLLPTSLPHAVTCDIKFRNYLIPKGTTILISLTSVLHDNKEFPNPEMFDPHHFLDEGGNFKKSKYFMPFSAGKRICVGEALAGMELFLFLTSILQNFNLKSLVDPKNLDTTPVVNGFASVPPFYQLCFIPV
Method: as §1

human P450 2E1 = human P450 2E1 (Homo sapiens, UniProt P05181); assay: Metabolism (hydroxylation) of substrates using transformed yeast cells or microsomal fractions expressing human P450 2E1
Sequence of human P450 2E1 (P05181 whole entry): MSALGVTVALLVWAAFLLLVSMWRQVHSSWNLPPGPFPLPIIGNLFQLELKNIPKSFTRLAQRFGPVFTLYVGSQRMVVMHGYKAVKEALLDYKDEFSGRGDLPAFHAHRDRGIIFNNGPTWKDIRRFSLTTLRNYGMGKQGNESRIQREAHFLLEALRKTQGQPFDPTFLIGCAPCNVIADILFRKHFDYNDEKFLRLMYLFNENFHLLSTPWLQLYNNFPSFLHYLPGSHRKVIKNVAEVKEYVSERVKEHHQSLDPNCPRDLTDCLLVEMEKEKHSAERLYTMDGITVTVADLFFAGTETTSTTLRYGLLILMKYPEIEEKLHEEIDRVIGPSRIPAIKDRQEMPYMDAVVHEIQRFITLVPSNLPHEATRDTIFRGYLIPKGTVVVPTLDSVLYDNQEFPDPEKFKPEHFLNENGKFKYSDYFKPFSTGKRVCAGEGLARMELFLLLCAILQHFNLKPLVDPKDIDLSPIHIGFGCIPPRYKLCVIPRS
Method: as §1

human P450 3A4 = assay: Metabolism (hydroxylation) of substrates using transformed yeast cells or microsomal fractions expressing human P450 3A4
Method: as §1

human P450 2A6 = assay: Metabolism (hydroxylation) of substrates using transformed yeast cells or microsomal fractions expressing human P450 2A6
Method: as §1

human P450 2B6 = target: T2, human P450 2B6 (Homo sapiens, UniProt P20813); assay: Metabolism (hydroxylation) of substrates using transformed yeast cells or microsomal fractions expressing human P450 2B6
T2 sequence (P20813 1-491): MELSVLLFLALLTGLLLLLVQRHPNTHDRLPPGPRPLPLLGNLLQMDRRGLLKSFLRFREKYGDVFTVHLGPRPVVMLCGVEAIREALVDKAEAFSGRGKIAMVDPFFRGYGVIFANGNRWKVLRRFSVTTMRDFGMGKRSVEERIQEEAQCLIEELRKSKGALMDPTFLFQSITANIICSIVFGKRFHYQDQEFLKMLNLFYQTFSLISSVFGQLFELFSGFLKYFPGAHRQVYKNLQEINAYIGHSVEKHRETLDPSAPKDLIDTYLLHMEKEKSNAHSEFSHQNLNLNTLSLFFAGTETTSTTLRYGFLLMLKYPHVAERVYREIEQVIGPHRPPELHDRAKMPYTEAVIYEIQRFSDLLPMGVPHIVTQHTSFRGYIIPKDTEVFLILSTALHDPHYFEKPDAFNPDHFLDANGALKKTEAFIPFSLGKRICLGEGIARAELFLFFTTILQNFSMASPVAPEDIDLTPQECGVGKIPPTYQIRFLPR
Method: as §1

human P450 2C8 = assay: Metabolism (hydroxylation) of substrates using transformed yeast cells or microsomal fractions expressing human P450 2C8
Method: as §1

human P450 2C18 = target: T3, human P450 2C18 (Homo sapiens, UniProt P33260); assay: Metabolism (hydroxylation) of substrates using transformed yeast cells or microsomal fractions expressing human P450 2C18
T3 sequence (P33260 26-490): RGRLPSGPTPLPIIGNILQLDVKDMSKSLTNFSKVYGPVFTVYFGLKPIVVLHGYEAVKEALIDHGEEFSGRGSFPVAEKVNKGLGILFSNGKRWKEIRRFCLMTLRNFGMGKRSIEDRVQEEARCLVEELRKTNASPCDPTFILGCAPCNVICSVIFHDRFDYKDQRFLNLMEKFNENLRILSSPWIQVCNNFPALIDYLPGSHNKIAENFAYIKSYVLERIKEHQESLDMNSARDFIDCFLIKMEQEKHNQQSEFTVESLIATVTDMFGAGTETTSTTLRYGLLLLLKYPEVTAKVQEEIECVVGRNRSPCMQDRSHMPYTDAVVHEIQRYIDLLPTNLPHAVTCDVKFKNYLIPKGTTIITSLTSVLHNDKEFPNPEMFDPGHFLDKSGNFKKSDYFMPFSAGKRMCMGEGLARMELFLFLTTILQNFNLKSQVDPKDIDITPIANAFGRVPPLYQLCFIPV
Method: as §1

human P450 2C19 = human P450 2C19 (Homo sapiens, UniProt P33261); assay: Metabolism (hydroxylation) of substrates using transformed yeast cells or microsomal fractions expressing human P450 2C19
Sequence of human P450 2C19 (P33261 whole entry): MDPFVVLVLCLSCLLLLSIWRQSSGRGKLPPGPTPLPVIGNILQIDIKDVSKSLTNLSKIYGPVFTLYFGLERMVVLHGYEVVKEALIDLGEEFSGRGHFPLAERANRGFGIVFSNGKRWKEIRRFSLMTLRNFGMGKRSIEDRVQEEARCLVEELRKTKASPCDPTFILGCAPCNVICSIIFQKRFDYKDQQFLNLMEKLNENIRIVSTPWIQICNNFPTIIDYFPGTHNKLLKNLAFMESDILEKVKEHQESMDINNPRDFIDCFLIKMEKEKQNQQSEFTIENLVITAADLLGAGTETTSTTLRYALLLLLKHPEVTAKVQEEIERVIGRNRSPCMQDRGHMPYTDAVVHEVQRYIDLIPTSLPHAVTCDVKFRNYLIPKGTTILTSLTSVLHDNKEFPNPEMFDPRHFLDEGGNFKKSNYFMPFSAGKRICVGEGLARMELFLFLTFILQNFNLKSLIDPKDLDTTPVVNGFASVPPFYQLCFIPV
Method: as §1

human P450 2D6 = assay: Metabolism (hydroxylation) of substrates using transformed yeast cells or microsomal fractions expressing human P450 2D6
Method: as §1

[1] = system: mixed microsomal fractions of yeasts expressing human cytochrome P450 (3A4, 2C9, 2C8, 2C18, 2C19, 1A2, 2E1, 1A1, 2B6, 2D6); assay: Metabolism of debrisoquine using mixture of microsomal fractions of transformed yeast cells; type: in vitro ADME; conditions: 37° C., 30 min; HPLC
Method: The mixing molar ratio of the human cytochrome P450 molecular species were as follows: [table] […] After the mixture was incubated at 37° C. for 30 min, 50 μl of 60% perchlorate was added to the solution to stop the reaction.

human P450 1A1 [2] = target: T4, human P450 1A1 (Homo sapiens, UniProt P04798); conditions: microsomes
T4 sequence (P04798 1-512): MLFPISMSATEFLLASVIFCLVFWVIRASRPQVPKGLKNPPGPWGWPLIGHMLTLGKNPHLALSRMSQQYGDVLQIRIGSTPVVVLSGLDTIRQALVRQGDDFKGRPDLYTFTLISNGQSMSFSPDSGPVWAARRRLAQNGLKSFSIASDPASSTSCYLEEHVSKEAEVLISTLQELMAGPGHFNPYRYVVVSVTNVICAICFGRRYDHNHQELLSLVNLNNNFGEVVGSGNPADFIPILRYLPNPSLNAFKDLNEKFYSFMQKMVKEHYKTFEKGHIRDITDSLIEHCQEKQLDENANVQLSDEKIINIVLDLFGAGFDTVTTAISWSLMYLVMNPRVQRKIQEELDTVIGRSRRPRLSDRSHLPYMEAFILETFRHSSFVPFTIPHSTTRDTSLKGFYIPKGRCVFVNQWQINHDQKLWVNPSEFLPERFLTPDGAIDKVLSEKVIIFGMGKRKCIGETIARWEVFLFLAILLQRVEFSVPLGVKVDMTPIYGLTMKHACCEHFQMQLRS

[3] = system: other human P450 molecular species
[4] = system: mixed system B (eleven human P450 molecular species); assay: Metabolism of S-mephenytoin using mixture of microsomal fractions of transformed yeast cells (mixing system B); type: in vitro ADME; conditions: 37° C., 30 min; HPLC
Method: The mixing ratio of the human cytochrome P450 molecular species was the same as that of the mixing system B as described above. […] After the mixture was incubated at 37° C. for 30 min, 250 μl of methanol was added to the solution to stop the reaction.

human P450 1A1 [5] = target: T4, human P450 1A1; assay: Metabolism (hydroxylation) of substrates using transformed yeast cells or microsomal fractions expressing human P450 1A1; conditions: Table 1; recombinant yeast cells or microsomal fractions; conditions per substrate
[6] = system: other human P450 molecular species; assay: Metabolism of substrates using yeast cells or microsomal fractions expressing the other human P450 molecular species (those not given); conditions: the remaining of the eleven human P450 species
[7] = Table 1, recombinant yeast cells or microsomal fractions, conditions per substrate

Row | SMILES | Hydroxylation activity, human P450 3A4 (human P450 3A4; microsomes) | Hydroxylation activity, human P450 2A6 (human P450 2A6; microsomes) | Hydroxylation activity, human P450 2C8 (human P450 2C8; microsomes) | Hydroxylation activity, human P450 2D6 (human P450 2D6; microsomes) | Hydroxylated metabolite / hydroxylation activity with yeast expressing other human P450 than those named [3] | Hydroxylation activity, human P450 1A2 (human P450 1A2; [7]) | Hydroxylation activity, human P450 2E1 (human P450 2E1; [7]) | Hydroxylation activity, human P450 2B6 (human P450 2B6; [7]) | Hydroxylation activity, human P450 2C18 (human P450 2C18; [7]) | Hydroxylation activity, human P450 1A1 (human P450 1A1 [5]) | also measured
1 | N=C(N)N1CCc2ccccc2C1 [Debrisoquine] | − | − | − | + + + | no activity |  |  |  |  |  | Hydroxylation activity, human P450 1A2 (human P450 1A2; microsomes): −; Hydroxylation activity, human P450 2C9 (human P450 2C9; microsomes): −; Hydroxylation activity, human P450 2E1 (human P450 2E1; microsomes): −; Hydroxylation activity, human P450 2B6 (human P450 2B6; microsomes): −; Hydroxylation activity, human P450 2C18 (human P450 2C18; microsomes): −; Hydroxylation activity, human P450 2C19 (human P450 2C19; microsomes): −; Metabolites compared with those reported for human liver microsome (Kronbach) [1]: well coincided; Hydroxylation activity, human P450 1A1 (human P450 1A1 [2]): + +
2 | CC[C@@]1(c2ccccc2)NC(=O)N(C)C1=O [S-Mephenytoin] | − | − | − | − | no activity | − | − | − | − | − | Hydroxylation activity, human P450 2C9 (human P450 2C9; [7]): −; Metabolites compared with those reported for human liver microsome (Goldstein) [4]: well coincided
3 | C[C@]12CC[C@H]3[C@@H](CCC4=CC(=O)CC[C@@]43C)[C@@H]1CC[C@@H]2O [Testosterone] |  |  |  |  |  | − | − | − | − | + | Metabolising (hydroxylation / O-deethylation) activity in words, P450 3A4 (human P450 3A4; 7-ethoxycoumarin 0.5 mM, testosterone 0.05 mM, chlorzoxazone 0.5 mM or 250 μM, acetanilide 5 mM): detected; Hydroxylation activity, human P450 3A4 (human P450 3A4; [7]): + + +; Hydroxylation activity, human P450 2A6 (human P450 2A6; [7]): −; Metabolising (hydroxylation / O-deethylation) activity in words, P450 2C8 (human P450 2C8; 7-ethoxycoumarin 0.5 mM, tolbutamide 1.0 mM, testosterone 0.05 mM, chlorzoxazone, acetanilide 5 mM): detected; Hydroxylation activity, human P450 2C8 (human P450 2C8; [7]): +; Hydroxylation activity, human P450 2C19 (human P450 2C19; [7]): −; Hydroxylation activity, human P450 2D6 (human P450 2D6; [7]): −; Hydroxylated metabolite / hydroxylation activity with yeast expressing other human P450 than those named [6]: not detected
